These results are taken from a melting point compilation (Tetko et al.; mined from patent text by program, amines drawn as free bases though some values may be those of a salt).

A value given as a limit tells only on which side of the number the result lay.

One may read the melting point as the temperature of the solid-liquid transition. On to `COc1ccc(NC(=O)c2ccc(Cl)c(Cl)c2)cc1NCc1cccs1`, for which the melting point lay within 185 to 188 °C.

For `Cc1ccc(C=Nc2c(-c3ccccc3C)nc3c4ccccc4ccn23)cc1`, the melting point was determined as 160 °C.

Take `Nc1cc(Cl)cc([N+](=O)[O-])c1C(=O)O`: the melting point lay in the range of 202 to 205 °C.

On to `CCOP(=O)(/C=C/c1cn(-c2ccccc2)nc1OCc1ccc(OCc2cn(-c3ccccn3)nc2C)c(OC)c1)OCC`, for which the melting point is 103 to 104 °C.

With `O=C(c1cc2ccccc2o1)C12CC3CC(CC(C3)C1)C2`, the melting point is 129 to 131 °C.

For the compound `Cc1ccc(F)c(C(C)Oc2ccc3nc(NC(=O)NCCN4CCOCC4)sc3c2)c1F` (stereo not drawn), the melting point is 92 to 95 °C.

In the case of `O=C1CCC2=C(CCc3cc(F)ccc32)N1Cc1ccccc1`, the melting point is 101 to 102 °C.

For the compound `O=C(O)C1Cc2cc3c(=O)c4c(F)cccc4oc3c(Cl)c2O1` (stereo not drawn), the melting point stood at 300 °C.

Regarding `OCCOc1cn(-c2ccc(F)cc2)c2ccc(Cl)cc12`, the melting point fell in the range of 118 to 120 °C.

Regarding `O=C1C=CC(=O)c2cc(C(F)(F)F)c(C(F)(F)F)cc21`, the melting point fell in the range of 91 to 94 °C.

`CCCCCCCC1=CC(=O)N(Cc2ccccc2)C1(O)CBr` (stereo not drawn) showed a melting point of 94 to 96 °C.

With `COc1cc2c(cc1OC)C(C)C(C)=NN=C2c1cccc(Cl)c1` (stereo not drawn), the melting point fell in the range of 156 to 158 °C.

`O=C(O)c1ccc(NCCCCOc2ccccc2)cc1` yielded a melting point of 153 to 155 °C.

Regarding `CC(C)OP(=O)(/C=C/CCn1cnc2c(Cl)ncnc21)OC(C)C`, the melting point came out at 105 °C.

Consider `CC1(C)OC(=C(C#N)C#N)C(C#N)=C1c1ccc(F)cc1`, for which the melting point was 263 °C.

For the compound `O=C1CCC(N2CCC(n3c(=O)[nH]c4ccccc43)CC2)CC1`, the melting point lay within 221 to 223 °C.

Turning to `COC(=O)CCC(C(=O)C=Cc1ccc(OC(C)=O)c(OC(F)(F)F)c1)C(=O)C=Cc1ccc(OC(C)=O)c(OC(F)(F)F)c1` (stereo not drawn), the melting point fell in the range of 149 to 150 °C.

`O=C(O)C(=O)c1ccc(OCCCCCCOc2ccccc2)cc1` returned a melting point of 121 to 122 °C.

Compound `COc1cc(NC(=O)OCCCN2CCN(c3ccc(Cl)cc3)CC2)cc(OC)c1OC` registered a melting point of 174 °C.

In turn, `CC(=O)OC(C)c1ccc(C=C(C)c2ccc3c(c2)C(C)(C)CCC3(C)C)cc1` (stereo not drawn) came in with a melting point of 85 to 86 °C.

With `CCC(C)[C@H](NC(=O)OCC1CCCC1)C(=O)N[C@@H](Cc1ccccc1)C(=O)CSCc1ccco1` (stereo partly drawn), the melting point was 77 to 78 °C.

In the case of `CC1(C)C=Cc2ccc(F)c(C#N)c2O1`, the melting point lay within 99 to 101 °C.

For `CCOC(=O)NCCOc1cc(Oc2ccc(C(F)(F)F)cc2Cl)ccc1[N+](=O)[O-]`, the melting point fell in the range of 70 to 71 °C.

In the case of `CC(C)n1cc(-c2nc(C(N)=O)c(N)nc2-c2ccc(C#N)cc2)ccc1=O`, the melting point was found to be 292 °C.

Turning to `CN(c1ccc(O)cc1)c1cc2ccc(F)cc2c(O)n1`, the melting point stood at 249 °C.

In turn, `NC(=O)CC(O)CCCCCNC(=O)OCc1ccccc1` (stereo not drawn) returned a melting point of 100 to 101 °C.

Turning to `COc1ccc(O)c(C(=O)N2CC(Oc3ccc(NC(=O)OC(C)(C)C)cc3)C2)c1`, the melting point fell in the range of 152 to 153 °C.

On to `CCCCCCCCc1ccc(CCC(NC(C)=O)(C(=O)OCC)C(=O)OCC)s1`, for which the melting point was 57 to 58 °C.

For `COC(=O)CN(C(=O)CCCOc1ccc2c(c1)CN1CC(=O)NC1=N2)C1CCCCC1`, the melting point was in the range of 185 to 186 °C.

Compound `CC(C)(CCCCCC(O)CCCCCC(C)(C)CC(=O)c1cccnc1)COC(=O)c1cccnc1` (stereo not drawn) had a melting point of 65 to 67 °C.

As to `CN(C)C=Nc1nc(=O)n(S(=O)(=O)c2ccc(Cl)cc2)cc1F`, the melting point lay in the range of 207 to 210 °C.

Turning to `COc1ccc(-c2[nH]nc3c2C(=O)c2c(NC(=O)Cc4ccc5c(c4)OCO5)cccc2-3)cc1`, the melting point was 297 °C.

`Cn1nc2nc(-c3ccc(N)c(C#N)c3)cc(C(F)(F)F)c2c1-c1ccccc1` displayed a melting point of 295 °C.

In the case of `N=C(N)NNC(=O)c1cccc(-c2csc(N=C(N)N)n2)n1`, the melting point was 194 to 196 °C.

For the compound `Cc1ccc2c(C(=O)NC(C)C)c(NC(=O)c3cc(C(F)(F)F)nn3-c3ncccc3Cl)c(C)cc2n1`, the melting point was over 240 °C.

Take `Cc1c(NC(=O)c2ccc(-c3ccc(Cl)cc3)c(F)c2)ccc2cc(CN3CCCC3)cnc12`: the melting point is 190 to 192 °C.

Compound `Clc1cc2c(c(-c3nc4ncccc4o3)c1)CCCC2` returned a melting point of 130 to 132 °C.

For the compound `COc1ccc(/C(=C\C=C\C(=O)O)c2cccnc2)cc1`, the melting point lay in the range of 235 to 238 °C.

The compound `CCOc1nc(C)ccc1C#N` displayed a melting point of 90 to 92 °C.

`CN1C(=O)N(c2ccc(C#N)c(C(F)(F)F)c2)C(=O)C1(CF)CF` displayed a melting point of 137 to 138 °C.

Compound `CC(C)(C)OC(=O)C=Cc1cc2ccccc2o1` had a melting point of 56 to 57 °C.

In the case of `O=C1Cn2cncc2CN1Cc1ccc(F)cc1`, the melting point was 112 to 114 °C.

`CC(=O)C1=C(O)C(=C(C)Nc2ccc(O)cc2)C(=O)OC1=O` registered a melting point of 223 to 225 °C.

Take `COc1ccc(Oc2cccc3c2C2(COc4cc5c(cc42)OCCO5)C(=O)N3C)cc1` (stereo not drawn): the melting point was 55 to 58 °C.

As to `OCc1ccc(I)cc1O`, the melting point was in the range of 129 to 131 °C.

Regarding `Cc1ccc(C(O)C2OC2C(C)(C)C)cc1` (stereo not drawn), the melting point lay in the range of 36 to 39 °C.

As to `CNC1NC(=O)c2sccc2-n2cccc21` (stereo not drawn), the melting point stood at 146 °C.

With `N#Cc1ccc(Nc2ccc(C(F)(F)F)cc2Nc2ccc(C#N)cc2C(=O)O)c(C(=O)O)c1`, the melting point was in the range of 235 to 240 °C.

`Cc1nc(N)ccc1-c1ccncc1`: the melting point was in the range of 207 to 209 °C.

Take `CSc1nn2c(N3CCN(CCO)CC3)cc(C)nc2c1S(=O)(=O)c1ccccc1`: the melting point is 189 to 190 °C.

`CCOC(=O)C1=Cc2ccsc2S(=O)(=O)N1CCCOC` displayed a melting point of 82 to 83 °C.

`O=C(O)C1=CSC2C(=Cc3nc4ncc5c(n4n3)CCC3(C5)OCCO3)C(=O)N12` (stereo not drawn) registered a melting point of over 250 °C.

For the compound `Cc1cnc2c(NC(=O)c3c(Cl)cccc3Cl)cccc2c1-n1ccnc1`, the melting point lay in the range of 224 to 228 °C.

`COC(=O)C1=C(O)c2cc(Cl)sc2S(=O)(=O)N1` came in with a melting point of 173 to 174 °C.

`CC(F)(F)c1cccc(C[C@H]2NC(=O)O[C@H]2c2ccc(F)cc2)c1` (racemic) displayed a melting point of 143 to 144 °C.

In turn, `CC(=O)c1ccc(NS(=O)(=O)N(C)C)cc1` registered a melting point of 129 to 130 °C.

For `COc1cc(N2CCN(C[C@H](C)O)CC2)ccc1Nc1ncc2ccc(-c3cc(Cl)ccc3OC)n2n1`, the melting point fell in the range of 163 to 166 °C.

`Cc1cccc(-n2c(-c3cc(-c4ccc(S(C)(=O)=O)cc4)c(N4CCOCC4)s3)nc3ccccc3c2=O)c1`: the melting point fell in the range of 208 to 210 °C.

Compound `O=C(O)COc1c(Br)cc(C(=O)c2c(CCc3ccccc3)oc3ccccc23)cc1Br` yielded a melting point of 163 to 164 °C.

Compound `Nc1ccc(-c2ccccc2)cc1N` came in with a melting point of 96 to 99 °C.

With `CCCCCCCCCCCCCCOc1cc(OCCCCCCc2cccc(OCc3ccccc3)c2OCc2ccccc2)cc(C(=O)O)c1`, the melting point fell in the range of 75 to 77 °C.

As to `OC1(c2ccc(Cl)c(Cl)c2)CCNCC1`, the melting point was 144 to 146 °C.

`O=C(c1ccc(F)cc1Cl)N1Cc2cccn2Cc2ccccc21` gave a melting point of 110 to 112 °C.

`CC(=O)CC(=O)N(C)c1cccc(-c2ccc3nnc(C)n3n2)c1` gave a melting point of 138 to 141 °C.

Compound `COc1ccc(-c2nc(C(N)(C(F)(F)F)C(F)(F)F)[nH]c2-c2ccc(OC)cc2)cc1` gave a melting point of 127 to 128 °C.

For `O=C1CC(O)c2ccc(F)cc21` (stereo not drawn), the melting point is 73 to 76 °C.

For `CCOC(=O)C(=CN[C@@H](C)CO)C(=O)c1c(F)c(F)c(Br)c(F)c1F`, the melting point is 127 to 134 °C.

In the case of `CCOC(=O)c1sc(-n2c(=O)n(Cc3ccc(F)cc3)c3ccccc32)nc1C`, the melting point was in the range of 192 to 193 °C.

Compound `S=c1[nH]c2c(n1Nc1cccc(Cl)c1)CCCC2` returned a melting point of 148 °C.

Regarding `CN1C(=O)C(C)(C)CCc2cc(C(=O)O)ccc21`, the melting point lay within 240 to 241 °C.

On to `COC(=O)Cc1c(Cl)ncnc1OC`, for which the melting point came out at 64 °C.

`CCCc1c(OCCCSc2ccc(C(=O)O)cn2)ccc(C(C)=O)c1O`: the melting point lay within 145 to 147 °C.

In the case of `O=C1CC(c2cccnc2)=NN1c1ccccc1`, the melting point was 102 to 103 °C.

In the case of `COc1cc(O)c(C(=O)C=Cc2ccc(SC)cc2)c(OC)c1`, the melting point was found to be 135 °C.

`CCOc1cc(C(F)(F)F)cc(Cl)c1-n1nc(C#N)c(SC(F)(F)F)c1N` gave a melting point of 166 °C.

`CC(C)C1(C)N=C2c3nc4sccc4cc3C(=O)N2C1=O` (stereo not drawn) showed a melting point of 214 to 216 °C.

For `CCOc1cc(F)cc2c1c(CCN(C)C)cn2CC`, the melting point fell in the range of 77.1 to 78.2 °C.

The compound `COc1ccc(CNc2ccc(O)c(C(=O)O)c2)cc1` gave a melting point of 205 to 206 °C.

Take `CN1CCC(C)(c2nc(-c3ccncc3)c(-c3ccc(F)cc3)[nH]2)CC1`: the melting point is 227 to 229 °C.

Turning to `Cc1cc(O)cc(C)c1-c1cccc(CO)c1`, the melting point turned out to be 175 °C.

In turn, `COc1ccc(Nc2cccc3c2C(=O)N([C@@]2(C)CCC(=O)NC2=O)C3=O)c(OC)c1` returned a melting point of 255 to 257 °C.

With `O=C(Nc1ccc(F)cc1)c1ccc(C2COC(c3c(F)cccc3F)=N2)cc1` (stereo not drawn), the melting point is 210 to 212 °C.

For `c1ccc(COc2cccc(-c3nc(COc4ccc(CCCn5ccnc5)cc4)co3)c2)cc1`, the melting point was 112 to 113 °C.

Take `Cc1cccc(-c2n[nH]cc2-c2ccc(F)c(-c3ccc(S(N)(=O)=O)c(C(F)(F)F)c3)c2)n1`: the melting point lay in the range of 107 to 110 °C.

Take `Nc1nc(N)c(Br)c(OCc2ccccc2)n1`: the melting point lay in the range of 165 to 166 °C.

As for `CON=C(c1ncon1)c1ccccc1COc1ccc(Cl)cc1`, the melting point fell in the range of 107 to 108 °C.

Compound `COc1ccc(C(=O)Nc2ccccc2)cc1NC(=S)Nc1ccc(Cl)cc1` displayed a melting point of 179 to 180 °C.

Turning to `CC1CC(=O)NN=C1c1ccc(NC(=O)CCNCC(O)COc2ccc(CCOCC3CC3)cc2)cc1` (stereo not drawn), the melting point was in the range of 54 to 56 °C.
